Measured values from patent publication US20100016244A1, “D-GLUCOPYRANOSE 1-[3,5-BIS (1,1-DIMETHYLETHY)-4-HYDROXYBENZOATE] AND ITS DERIVATIVES, PREPARATION AND USE THEREOF” (priority 2006, published 2010).
≈ marks a conversion by molar mass, not a printed value.

Tests used:
[1] = system: VHS (Herpes Simplex Virus); experiment: Virucidal activity on VHS (Herpes Simplex Virus), decrease in log by concentration and contact time; conditions: for Decrease expressed in log: test n° 4
Method: Results of the tests conducted in the laboratory of Prof. Chiron, (Faculty of Pharmacy of Tours): [table] hypothesis: 10 mg/8 ml (solubility check) Stock-solution: 33.47 mg/24.10 ml (x 1.11 C) i.e.: 11.11 mg/8 ml [table]

[2] = system: polio virus
[3] = system: HIV
[4] = physchem; conditions: water, thermodynamic from solid
[5] = Solubility in water (tests 1-3); conditions: for pH: after stirring for 48 H at 23° C. in water
[6] = Studies on rats (progeny, mutagenic effect)
[7] = system: HIV; conditions: cited from earlier work
[8] = system: VHS (Herpes Simplex Virus); conditions: from FR 2 668 931; cited from earlier work
[9] = system: enveloped-viruses; experiment: Active concentration on enveloped-viruses; conditions: BHT versus RDW 031

SMILES: CC(C)(C)c1cc(C(=O)OC2O[C@H](CO)[C@@H](O)[C@H](O)[C@H]2O)cc(C(C)(C)C)c1O (stereo partly drawn) [RDW031]
- active concentration, starting [1]: ≥ 0.0625%
- Reduction expressed in log ([1]; 0.00125 mg/ml (1/1000), contact time 120 min): 0.31 log
- Reduction expressed in log ([1]; 0.00250 mg/ml (1/500), contact time 60 min): 1.06 log
- Reduction expressed in log ([1]; 0.00250 mg/ml (1/500), contact time 120 min): 1.15 log
- Reduction expressed in log ([1]; 0.00625 mg/ml (1/200), contact time 60 min): 1.06 log
- Reduction expressed in log ([1]; 0.02500 mg/ml (1/50), contact time 30 min): 0.31 log
- Reduction expressed in log ([1]; 0.06250 mg/ml (1/20), contact time 30 min): 0.21 log
- Reduction expressed in log ([1]; 0.25000 mg/ml (⅕), contact time 15 min): 0.00 log
- Reduction expressed in log ([1]; 0.62500 mg/ml (½), contact time 15 min): 3.68 log
- active concentration expressed ([1]; converted from % concentration): ≥ 0.0015 mol
- Decrease expressed in log ([1]; 0.17028 mg/ml (⅕), contact time 15 min): 0.00 log
- Decrease expressed in log ([1]; 0.17028 mg/ml (⅕), contact time 30 min): 0.00 log
- Decrease expressed in log ([1]; 0.17028 mg/ml (⅕), contact time 60 min): 0.00 log
- Decrease expressed in log ([1]; 0.17028 mg/ml (⅕), contact time 120 min): 0.00 log
- Decrease expressed in log ([1]; 0.42570 mg/ml (½), contact time 60 min): 0.00 log
- Decrease expressed in log ([1]; 0.42570 mg/ml (½), contact time 120 min): 1.48 log
- Decrease expressed in log ([1]; 0.85140 mg/ml (pur), contact time 15 min): 1.25 log
- Decrease expressed in log ([1]; 0.85140 mg/ml (pur), contact time 30 min): 1.86 log
- Decrease expressed in log ([1]; 0.85140 mg/ml (pur), contact time 60 min): 2.15 log
- Decrease expressed in log ([1]; 0.85140 mg/ml (pur), contact time 120 min): 2.32 log
- effect on polio virus (naked-virus) [2]: no effect
- reduction of the virulence of a HIV culture [3]: 5 log
- solubility at 0.5 h ([4]; 23 °C): 40 µg/mL (≈ 97 µM)
- solubility at 12 h ([4]; 23 °C): 1200 µg/mL (≈ 2910 µM)
- solubility at 0.5 h ([4]; 100 °C): 1080 µg/mL (≈ 2620 µM)
- pH ([5]; Test no 3): pH = 5.9
- effects on progeny and mutagenic effect [6]: never shown any detectable effects

SMILES: CC(C)(C)c1cc(C(=O)OCCOCCOCCOCCOCCOCCOCCOCCO)cc(C(C)(C)C)c1O [AVF1, 3.5-di-tert-butyl-4-hydroxybenzoate octa-oxy-ethylene glycol]
- decrease of HIV's infectivity [7]: 7 log

SMILES: CC(C)(C)c1cc(C(=O)O)cc(C(C)(C)C)c1O [BG4, 3,5-di-t-butyl-4-hydroxybenoic acid]
- reduction of the virulence of a HIV culture [3]: 5 log
- concentration required for effectiveness on VHS [8]: 0.5%
- Solubility 12 H at 23° C. ([5]; Test No 2, water, RDW031 batch RV 34): insoluble
- Solubility after stirring for 48 H at 23° C. ([5]; Test no 3, 1 g + 100 ml H2O, RDW031 batch RV 41, BG4 from SIGMA-ALDRICH): 130 µg/mL
- pH ([5]; Test no 3): pH = 5.6
- Solubilité ½ H à 23° c. ([5]; water, ½ H at 23° C.): No measurable
- Solubility ½ H at 100° C. ([5]; water, ½ H at 100° C., no desolubilization at room temperature): 0.84 g/litre (no

SMILES: Cc1cc(C(C)(C)C)c(O)c(C(C)(C)C)c1 [BHT, butylhydroxytoluene]
- molar active concentration relative to RDW 031 [9]: 100 times
